Results published in US12115184B2, “Amorphous calcium carbonate stabilized with polyphosphates or bisphosphonates” (AMORPHICAL LTD., priority 2015, dated 2024).

Tested on: 4T1 tumor cells
Test: Mouse bone metastasis model, intratibial 4T1 cells
Type: in vivo, mouse (BALB/c)
Settings: for survival rate compared with the other groups: FIG. 8, days 13-27; for clinical signs scoring compared with the other groups: FIG. 9, days 0-27, high scoring = more clinical signs
Description: The purpose of this study was to assess the potential therapeutic efficacy of ACC stabilized with triphosphate (ACC-TP) on the development and progression of bone metastases in mouse model via intraperitoneal (IP) injections. The model is induced by intra osseous inoculation of 4T1 tumor cells (cells originated from mice mammary gland tumor). Two ACC concentrations were examined. Their efficacy was compared to CaCl2 as a control calcium source and to a common treatment of bone metastases (Bisphosphonate—Alendronic acid).
The study was designed in order to assess the potential therapeutic efficacy of ACC-TP via intraperitoneal (IP) injections, on the development and progression of bone metastases in mouse model. The cancer model was induced by Intratibial injections of cancer cells to the Tibia bone. Intratibial injections are used when focusing on the relationships of cancer cells and bone after a tumor has metastasized, thus is considered the most appropriate for such studies.
Female mice (BALB/c, 9 weeks old) were used for the experiment. […] Initial body weight was 16-19 gr. The mice were let to acclimatize 5 days prior to the experiment.
The first control or test items administration day was defined as “Day 1”. On study day “0” all mice were anesthetized used intraperitoneal injection of Ketamine (80 mg/kg) and Xylazine (5 mg/kg). 4T1 (CRL-2539, B1) cells were injected intratibial into the Tibia in a dose level of 70×10^3 cells and dose volume of 10 μl per animal.
The control or test Items comprising calcium were administered intraperitoneally by a 25 G needle, daily (6 days a week) from Day 1 until study termination. The Alendronic acid was administered subcutaneously once a day, 3 days a week.
At study termination (Day 23 and Day 27), animals were […] by CO2 asphyxiation.
The following measurements and observations were recorded: (i) Mortality and morbidity (daily); (ii) Clinical signs observations (twice a week); (iii) Body weight measurements (once a week and at study termination); (iv) Radiographic analysis; and (v) Amount of food and water consumption (once a week).
Observations were performed for any changes in skin, fur, eyes, mucous membranes, respiratory, occurrence of secretions and excretions (e.g. diarrhea). Changes in gait, posture and response to handling, as the presence of bizarre behavior, tremors, convulsions, sleep and coma were also included.
X-ray monitoring were performed at Day “0” and Day “20” (X-ray generator Girth 8015).

[1] = after intratibial 4T1 injection on day 0

Q: What does the source list for NCCCC(O)(P(=O)(O)O)P(=O)(O)O [Alendronic acid]?
A: survival rate compared with the other groups: survival rate is lower; clinical signs scoring compared with the other groups: highest scoring of clinical signs; day up to which no mice had deceased [1]: 19 days; overall performance / therapeutic effect (conclusion from survival rate and clinical signs): worst performance

Q: For [Ca+2].[Cl-].[Cl-] [CaCl2, calcium chloride], which “survival rate compared with the other groups” value is on record?
A: The value was “lower survival percentage”.

Q: And the “clinical signs scoring compared with the other groups” value?
A: Its value is “higher number of clinical signs”.

Q: What about the “mice deceased as early as day” value [1] of the same compound?
A: The value was 16 days.

Q: And the survival percentages (up to day 23 of study duration)?
A: Its survival percentages is “higher than 75%”.
